Assay [1] deals with RAW264.7. The experiment in a line: Evaluated for inhibition of COX-2 catalyzed PGE-2 production from LPS induced RAW 264.7 cells; Range: 0.1-0.5 uM. It counts as functional, cell-based. As to conditions: Mus musculus.
For assay [2], the system named is RAW264.7. In words: Evaluated for inhibition of COX-2 catalyzed PGE-2 production from LPS induced RAW 264.7 cells. Format: functional, cell-based. The note with it: Mus musculus.

Broadly, the IC50 is the concentration that gives 50% inhibition. Low values mean greater potency, high ones weaker potency.

Some results are limits rather than exact numbers.

The compound `COc1ccc2c(=O)cc(-c3ccc(Cl)c(Cl)c3)oc2c1` returned an IC50 in the assay on RAW264.7 [1] of less than 500 nM. Regarding `O=c1cc(-c2ccc(Cl)c(Cl)c2)oc2cc(O)ccc12`, the IC50 in the assay with RAW264.7 [1] is less than 500 nM. Turning to `COc1cccc2oc(-c3ccc(Cl)c(Cl)c3)cc(=O)c12`, the IC50 in the assay on RAW264.7 [1] was less than 500 nM. Compound `COc1ccc2c(=O)cc(-c3ccc(Cl)cc3)oc2c1` gave an IC50 in the assay with RAW264.7 [2] of 500 nM. Turning to `O=c1cc(-c2ccccc2)oc2ccccc12` [FLAVONE], in the assay on RAW264.7 [2], the IC50 was 500 nM. As for `CS(=O)(=O)Nc1ccc([N+](=O)[O-])cc1OC1CCCCC1` [NS-398], the IC50 in the assay on RAW264.7 [2] is 500 nM. Turning to `COc1c(O)cc(O)c2c(=O)cc(-c3ccccc3)oc12` [WOGONIN], in the assay on RAW264.7 [2], inhibition was half-maximal at 1080 nM (IC50).

Source of the values: ChEMBL document CHEMBL1139449, “Synthesis and inhibitory activity against COX-2 catalyzed prostaglandin production of chrysin derivatives” (Bioorg Med Chem Lett, 2004).
